Earlier results, collected in patent US6562588B2, “Sialidase and recombinant cell lines” (Genentech, Inc., priority 1993, dated 2003).
Where two headings read alike, the source gives them in different places.

Columns and labels:
[1] = biological target: cytosolic sialidase from rat muscle (Rattus norvegicus, UniProt Q64627); settings: read-out: Ki, rat muscle sialidase (Cytosol)
[2] = tested on: plasma membrane sialidase (Adenovirus Transformed Kidney Cells); settings: read-out: Ki, adenovirus transformed kidney cell sialidase (Plasma Membrane)
[3] = biological target: T1, lysosomal sialidase (Fibroblasts) (Homo sapiens, UniProt Q99519); settings: read-out: Ki, fibroblast sialidase (Lysosome)
T1 construct: host or cells: fibroblasts

cytosolic sialidase from rat muscle, sequence (Q64627 whole entry): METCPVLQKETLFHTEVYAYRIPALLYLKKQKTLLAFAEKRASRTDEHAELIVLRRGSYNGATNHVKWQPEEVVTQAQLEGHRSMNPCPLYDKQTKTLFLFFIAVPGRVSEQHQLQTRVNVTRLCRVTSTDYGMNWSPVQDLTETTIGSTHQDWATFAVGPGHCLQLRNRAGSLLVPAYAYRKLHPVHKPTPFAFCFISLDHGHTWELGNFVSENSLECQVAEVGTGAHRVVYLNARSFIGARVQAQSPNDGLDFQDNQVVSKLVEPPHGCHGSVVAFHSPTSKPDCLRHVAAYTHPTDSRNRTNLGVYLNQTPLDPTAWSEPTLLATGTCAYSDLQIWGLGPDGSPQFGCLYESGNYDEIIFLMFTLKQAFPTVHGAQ

Ki ([1]; 4-MU-Neu5Ac as substrate, previously reported data) [µM]	SMILES	Ki [1] [µM]	Ki [2] [µM]	Ki [3] [µM]
	CC(=O)N[C@H]1[C@H]([C@H](O)[C@H](O)CN=[N+]=[N-])OC(C(=O)O)=C[C@@H]1O [9-Azido Neu5Ac2en, 5-acetamido-2,6-anhydro-9-azido-3,5,9-trideoxy-D-glycero-D-galacto-non-2-enonic acid]	50	10	10
> 50	CC(=O)N[C@H]1[C@H]([C@H](O)[C@H](O)CSc2ccc(N=[N+]=[N-])cc2[N+](=O)[O-])OC(C(=O)O)=C[C@@H]1O [9-S-PANP Neu5Ac2en, 9-S-(4′-azido-2′-nitro-phenyl)-5-acetamido-2,6 anhydro-9-thio-2,5,9-trideoxy-D-glycero-D-galacto-non-2-enonic acid]			
